Reference: ChEMBL document CHEMBL1201862, “PubChem BioAssay data set” (2004)
Active and inactive are the calls of the source.

Experiments:
[1] = A Cell Based Secondary Assay To Explore Cytotoxicity of Compounds that Sensitize Mycobacterium Tuberculosis to Beta-Lactam Antibiotics.; type: functional
[2] = inhibitors of intracellular T. cruzi replication, confirmation, NIH3T3 host cells, beta-gal luminescence (AID 2044); type: functional, cell-based;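 also: intracellular parasites grown in NIH/3T3 mouse fibroblasts as host cells; luminescent beta-galactosidase reporter signal from transgenic T. cruzi replicating inside host cells; inhibitors lower the luminescence signal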
[3] = cytotoxicity toward NIH3T3 fibroblasts, dose response, counter-screen, cell-based, ATP luminescence, mouse fibroblasts (AID 2010); type: functional;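 also: cells exposed to compound for about 90 hours before reading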
[4] = THP-1 cell cytotoxicity, dose response, cytotoxicity control for Vif-APOBEC3G degradation inhibitor project, THP-1 cells (AID 1117359); type: functional; conditions: Human immunodeficiency virus 1, THP-1
[5] = Luminescence Cell-Based Dose Response to Identify Activators of 5'UTR Stem-Loop Driven Prion Protein mRNA Translation in H4-C Neuroglioblastoma Cells. [Related pubchem assays: 1829 (Project Summary), 1814 (Primary HTS)]; type: functional
[6] = Luminescence Cell-Based Dose Confirmation HTS to Identify Activators of 5'UTR Stem-Loop Driven Alpha-Synuclein mRNA Translation in H4 Neuroglioblastoma Cells. [Related pubchem assays: 1829 (Project Summary), 1814 (Primary HTS)]; type: functional
[7] = tested on: H4; test: Luminescence Cell-Based Dose Response HTS to Identify Activators of 5'UTR Stem-Loop Driven Prion Protein mRNA Translation in H4 Neuroglioblastoma Cells. [Related pubchem assays: 1829 (Project Summary), 1814 (Primary HTS)]; type: functional; conditions: Homo sapiens
[8] = Luminescence Cell-Based Dose Response to Identify Activators of Luciferase Translation or Activity in H4-C Neuroglioblastoma Cells. [Related pubchem assays: 1829 (Project Summary), 1814 (Primary HTS)]; type: functional
[9] = Luminescence Cell-Based Dose Confirmation to Identify Activators of 5'UTR Stem-Loop Driven Alpha-Synuclein mRNA Translation in H4 Neuroglioblastoma Cells. [Related pubchem assays: 1829 (Project Summary), 1814 (Primary HTS)]; type: functional
[10] = biological target: T1, Caspase-3 (Homo sapiens, UniProt P42574); type: functional;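 also: Dose-response selectivity test against caspase-3 for candidate inhibitors of sentrin-specific proteases (SENPs)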
T1 sequence (P42574 whole entry): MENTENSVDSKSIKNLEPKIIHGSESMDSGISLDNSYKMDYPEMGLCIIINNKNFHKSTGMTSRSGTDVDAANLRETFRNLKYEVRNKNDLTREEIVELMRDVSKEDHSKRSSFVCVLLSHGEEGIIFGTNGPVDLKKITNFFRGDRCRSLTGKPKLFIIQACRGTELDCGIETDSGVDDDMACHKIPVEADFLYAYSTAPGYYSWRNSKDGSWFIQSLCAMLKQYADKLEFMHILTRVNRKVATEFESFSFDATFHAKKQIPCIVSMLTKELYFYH

[11] = biological target: T2, Sentrin-specific protease 7 (Homo sapiens, UniProt Q9BQF6); type: functional;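 also: Luminescence-based dose-response confirmation of ultra-high-throughput screening hits, measuring inhibition of SENP7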
T2 sequence (Q9BQF6 whole entry): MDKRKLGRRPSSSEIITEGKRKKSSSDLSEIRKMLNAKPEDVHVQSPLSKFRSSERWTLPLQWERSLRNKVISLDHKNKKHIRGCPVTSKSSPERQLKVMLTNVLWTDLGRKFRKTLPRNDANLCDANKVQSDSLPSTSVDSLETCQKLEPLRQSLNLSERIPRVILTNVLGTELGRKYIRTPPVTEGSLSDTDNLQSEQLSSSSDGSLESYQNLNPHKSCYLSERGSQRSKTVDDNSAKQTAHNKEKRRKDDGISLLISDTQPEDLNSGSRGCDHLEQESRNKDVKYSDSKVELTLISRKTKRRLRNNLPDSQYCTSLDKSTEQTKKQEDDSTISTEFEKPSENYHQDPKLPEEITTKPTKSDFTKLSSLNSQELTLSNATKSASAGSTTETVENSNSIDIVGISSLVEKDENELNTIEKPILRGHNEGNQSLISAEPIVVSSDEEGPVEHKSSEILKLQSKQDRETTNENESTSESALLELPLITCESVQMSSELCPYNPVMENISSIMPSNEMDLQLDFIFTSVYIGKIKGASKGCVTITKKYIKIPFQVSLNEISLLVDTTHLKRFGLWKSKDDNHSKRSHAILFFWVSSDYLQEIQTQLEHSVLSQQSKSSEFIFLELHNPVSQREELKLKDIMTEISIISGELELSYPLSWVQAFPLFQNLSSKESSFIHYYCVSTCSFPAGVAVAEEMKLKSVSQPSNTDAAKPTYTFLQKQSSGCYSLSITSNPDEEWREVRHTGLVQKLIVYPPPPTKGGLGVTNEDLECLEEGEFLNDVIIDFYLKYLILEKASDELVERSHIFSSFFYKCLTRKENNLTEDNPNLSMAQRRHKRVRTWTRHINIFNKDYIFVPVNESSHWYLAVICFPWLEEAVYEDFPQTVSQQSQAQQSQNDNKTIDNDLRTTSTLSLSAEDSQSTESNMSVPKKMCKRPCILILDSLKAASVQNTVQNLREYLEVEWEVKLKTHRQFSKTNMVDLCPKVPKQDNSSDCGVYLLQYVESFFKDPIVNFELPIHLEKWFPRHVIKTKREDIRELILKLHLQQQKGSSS

[12] = biological target: T3, Sentrin-specific protease 6 (Homo sapiens, UniProt Q9GZR1); type: functional;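 also: Luminescence-based dose-response confirmatory assay of SENP6 inhibition, following up an ultra-high-throughput screen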
T3 sequence (Q9GZR1 whole entry): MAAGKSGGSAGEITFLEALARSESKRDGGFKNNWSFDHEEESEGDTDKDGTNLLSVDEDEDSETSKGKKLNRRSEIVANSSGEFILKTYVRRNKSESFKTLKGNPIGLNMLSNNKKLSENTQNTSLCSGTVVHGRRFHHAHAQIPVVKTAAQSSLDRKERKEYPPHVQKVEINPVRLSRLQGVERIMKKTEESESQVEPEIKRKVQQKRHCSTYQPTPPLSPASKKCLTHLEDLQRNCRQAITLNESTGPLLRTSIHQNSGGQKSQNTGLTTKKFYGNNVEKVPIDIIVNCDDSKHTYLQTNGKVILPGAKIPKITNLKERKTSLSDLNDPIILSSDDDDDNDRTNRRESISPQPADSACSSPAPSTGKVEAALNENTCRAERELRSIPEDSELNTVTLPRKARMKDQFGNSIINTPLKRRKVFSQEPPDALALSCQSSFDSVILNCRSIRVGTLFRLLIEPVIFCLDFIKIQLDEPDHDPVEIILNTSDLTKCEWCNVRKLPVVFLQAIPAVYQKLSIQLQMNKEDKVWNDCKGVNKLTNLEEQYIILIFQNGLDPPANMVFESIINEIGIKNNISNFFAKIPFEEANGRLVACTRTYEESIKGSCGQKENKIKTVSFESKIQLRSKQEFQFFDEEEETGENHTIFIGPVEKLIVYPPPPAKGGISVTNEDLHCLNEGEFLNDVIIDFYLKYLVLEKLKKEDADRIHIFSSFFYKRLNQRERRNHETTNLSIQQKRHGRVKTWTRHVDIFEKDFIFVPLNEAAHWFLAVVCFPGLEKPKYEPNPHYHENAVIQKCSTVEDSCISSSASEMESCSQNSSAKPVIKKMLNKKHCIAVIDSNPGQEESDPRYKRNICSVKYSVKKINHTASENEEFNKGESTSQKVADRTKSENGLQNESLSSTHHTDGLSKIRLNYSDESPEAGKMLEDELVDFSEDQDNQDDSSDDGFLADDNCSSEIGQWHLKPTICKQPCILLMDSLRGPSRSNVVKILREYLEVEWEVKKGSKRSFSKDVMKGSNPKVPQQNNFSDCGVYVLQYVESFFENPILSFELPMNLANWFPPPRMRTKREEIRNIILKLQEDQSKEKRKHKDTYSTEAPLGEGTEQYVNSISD

[13] = biological target: T4, Sentrin-specific protease 8 (Homo sapiens, UniProt Q96LD8); type: functional;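 also: luminescence read-out of SENP8 inhibition, dose-response confirmation following an ultra-high-throughput screen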
T4 sequence (Q96LD8 whole entry): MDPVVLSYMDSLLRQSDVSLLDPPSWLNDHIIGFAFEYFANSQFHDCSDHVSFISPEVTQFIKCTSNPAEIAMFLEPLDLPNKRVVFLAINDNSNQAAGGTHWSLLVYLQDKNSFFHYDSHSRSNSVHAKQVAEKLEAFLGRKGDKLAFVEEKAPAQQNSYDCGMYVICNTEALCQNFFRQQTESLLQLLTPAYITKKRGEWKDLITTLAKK

[14] = biological target: Prothrombin (Homo sapiens, UniProt P00734); test: Thrombin 1536 HTS Dose Response Confirmation. [Related pubchem assays: 1046 (Thrombin 1536 HTS; hits were confirmed in this assay)]; type: functional
[15] = Luminescence Cell-Based Dose Response HTS to Identify Activators of Luciferase Translation or Activity in H4 […] Cells. [Related pubchem assays: 1829 (Project Summary), 1814 (Primary HTS)]; type: functional
[16] = biological target: T5, Calpain-2 catalytic subunit (Sus scrofa, UniProt P43367); test: pig calpain II inhibitor potency, dose response, biochemical, fluorogenic peptide substrate (AID 1420); type: functional
T5 sequence (P43367 whole entry): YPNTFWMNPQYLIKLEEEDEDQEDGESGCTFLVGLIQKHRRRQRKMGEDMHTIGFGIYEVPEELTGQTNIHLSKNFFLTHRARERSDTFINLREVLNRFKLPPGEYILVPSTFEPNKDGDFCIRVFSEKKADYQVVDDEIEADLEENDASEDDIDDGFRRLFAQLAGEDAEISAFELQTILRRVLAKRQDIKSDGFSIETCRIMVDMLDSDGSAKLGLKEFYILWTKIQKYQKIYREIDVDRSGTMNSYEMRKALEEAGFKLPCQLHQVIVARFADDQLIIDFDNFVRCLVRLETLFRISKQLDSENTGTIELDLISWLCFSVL

[17] = HEp-2 cell cytotoxicity, dose response, cytotoxicity control for RSV inhibitor project, HTS (AID 2410); type: functional; conditions: human respiratory syncytial virus
[18] = cells
[19] = P. falciparum late gametocyte killing, dose response, luminescence (AID 1117278); type: functional, cell-based;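 also: gametocytes exposed to compound for 24 hours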
[20] = Jurkat T cell cytotoxicity, dose response, cytotoxicity control for P. falciparum gametocyte viability project, luminescence (AID 1117277); type: functional, cell-based;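 also: potency reflects loss of cellular ATP meaning fewer viable cells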
[21] = P. falciparum Dd2 growth inhibitors, dose response, SYBR Green, dry powder samples, set 9 (AID 1159568); type: functional, cell-based
[22] = biological target: Nonstructural protein 1 (Influenza A virus, UniProt Q194T2); type: functional, Influenza A virus (A/California/07/2009(H1N1))
Chain of Nonstructural protein 1 (Q194T2 whole entry): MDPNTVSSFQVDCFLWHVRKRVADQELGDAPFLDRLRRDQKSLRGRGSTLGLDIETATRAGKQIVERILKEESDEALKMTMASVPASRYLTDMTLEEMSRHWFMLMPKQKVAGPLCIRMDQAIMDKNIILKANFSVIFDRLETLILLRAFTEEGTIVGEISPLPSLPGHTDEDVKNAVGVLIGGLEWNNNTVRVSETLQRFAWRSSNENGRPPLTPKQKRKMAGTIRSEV

[23] = cells; type: functional

With `CCn1c(=O)c2cc(C(=O)N(C)c3ccccc3F)sc2c2ccccc21` the CC50 [1] was > 40 µM (active), the EC50 [2] was 1.04 µM (active) and the EC50 [3] was > 30 µM (not active). The CC50 [4] was > 40 µM (active).
With `Cc1ccnc(SCc2nc3ccccc3s2)n1` the EC50 [5] was 3.21 µM (active), the EC50 [6] was < 0.1 µM (active) and the EC50 [7] was 6.54 µM (active). For the same compound, the EC50 [8] was > 12 µM (not active) and the EC50 [9] was > 12 µM (inconclusive).
For `Cc1cccc(-c2cc3nc4c(c(N5CCOCC5)n3n2)CCCC4)c1`, the EC50 [5] was 0.734 µM (active), the EC50 [7] was < 0.1 µM (active) and the EC50 [8] was 0.514 µM (active). The EC50 [9] was 0.228 µM (active), the IC50 [10] was 12.4 µM (active) and the IC50 [11] was 12.9 µM (active). For the same compound, the IC50 [12] was 18.5 µM (active) and the IC50 [13] was 19.4 µM (active).
In the case of `CCCCN(C)Cc1cc(=O)oc2cc3c(cc12)CCCC3`, the CC50 [1] is reported as > 40 µM (active).
With `CCC(=O)n1nc(-c2ccccc2)nc1SCC(=O)Nc1ccc(C)cc1` the IC50 [14] was 1.22 µM (active).
With `COc1ccccc1-c1ccc(NC2CCCCC2)nn1` the EC50 [5] was 1.68 µM (active), the EC50 [6] was 0.6 µM (active) and the EC50 [15] was 52.7 µM (active). For the same compound, the EC50 [7] was < 0.1 µM (active), the EC50 [8] was > 12 µM (not active) and the EC50 [9] was 0.442 µM (active).
With `COc1ccc(-c2cc(C(=O)NCc3cn(C)nc3C)c3ccccc3n2)cc1OC` the IC50 [16] was > 50 µM (not active).
With `Cc1ccc(Cn2c(SCC(=O)N3CC(=O)Nc4ccccc43)nc3ccccc3c2=O)cc1` the CC50 [17] was 40.2 µM (active) and the IC50 [18] was 42 µM (active).
For `CC1(C)CC(=O)C(Sc2nnc(-c3ccc(O)cc3)n2CC2CCCO2)C(=O)C1` (centres undefined), the IC50 [19] was > 109 µM (inactive) and the IC50 [20] was > 83.3 µM (inactive).
With `Cc1sc2c(c1C)c(=O)n(-c1ccc(F)cc1)c(=O)n2CC(=O)NCc1ccco1` the IC50 [16] was 25.1 µM (not active).
For `Cc1ccc(NC(=O)c2cc(N3C(=O)C4CCCCC4C3=O)ccc2N2CCOCC2)cc1` (centres undefined), the IC50 [16] was 14.9 µM (not active).
With `COc1cccc(NC(=O)c2ccc(NCCCN3CC(C)CC(C)C3)c([N+](=O)[O-])c2)c1` (centres undefined) the IC50 [16] was 3.92 µM (not active).
With `Cc1nc(SCC(=O)NCc2ccco2)c2c3c(sc2n1)CCCC3` the CC50 [1] was 19.8 µM (active).
For `O=C(Nc1nc(-c2cccs2)cs1)c1ccc(Cl)cc1`, the IC50 [14] was 4.5 µM (active).
In the case of `COc1cccc(S(=O)(=O)N2CCCCN3[C@H](CO)[C@H](c4ccc(C#CCC(C)C)cc4)[C@H]3C2)c1`, the AC50 [21] is reported as 2.41 µM (active).
For `O=C(COC(=O)c1cccnc1)Nc1ccc(F)cc1`, the IC50 [19] was > 109 µM (inactive) and the IC50 [20] was > 83.3 µM (inactive).
In the case of `COc1ccccc1NC(=O)CCn1c(=O)c2cccn2c2ccccc21`, the CC50 [17] is reported as > 50 µM (active) and the IC50 [18] is reported as 43.8 µM (active).
For `Cc1ccc(C)c(N=Nc2nc3ccccc3n2C)c1`, the EC50 [5] was 0.275 µM (active), the EC50 [15] was 0.139 µM (inconclusive) and the EC50 [7] was < 0.1 µM (active). For the same compound, the EC50 [8] was 0.281 µM (active), the EC50 [9] was 0.393 µM (active) and the IC50 [22] was 14.3 µM (active).
For `O=C(Nc1ncc(Cc2ccccc2)s1)C1=NCCN1`, the IC50 [23] was 14 µM (active), the IC50 [19] was > 109 µM (inactive) and the IC50 [20] was > 83.3 µM (inactive).
In the case of `CC1CCCCC12NC(=O)N(CC(=O)NCCc1ccccn1)C2=O` (centres undefined), the IC50 [19] is reported as > 109 µM (inactive) and the IC50 [20] is reported as > 83.3 µM (inactive).
For `Cc1ccc2cc(CN(Cc3ccco3)C(=O)c3ccco3)c3nnnn3c2c1`, the CC50 [17] was > 50 µM (active) and the IC50 [18] was 44.3 µM (active).
In the case of `N#C[C@H]1[C@@H](c2ccc(C3=CCCCC3)cc2)[C@@H](CO)N1C(=O)Nc1ccccc1F`, the AC50 [21] is reported as 15.8 µM (active).
